# Assay results published in patent US12570612B2, “Substituted nitrogen heterocyclic compound and anesthetic effect thereof” (priority 2019, dated 2026).
# “Also recorded” adds a separate entry of the source. Where two headings read alike, the source gives them in different places.
# What was measured:
# Sprague-Dawley rats [1] = experiment: Pharmacological characteristics at equivalent doses (2ED50), Group A compounds; format: in vivo; conditions: 2ED50, tail vein
# H295R cell line [2] = experiment: Adrenocortical function in vitro test: secretion of cortisol and corticosterone, Group A compounds; format: cell-based; conditions: H295 cells; for EC50: Homo sapiens, 0.1-10000 nM, HPLC-MS/MS
# Sprague-Dawley rats [3] = experiment: animal or person
# Method: (§1) Adult male Sprague-Dawley rats (250-300 g) were selected for the experiment. […] The anesthesia effects of the compounds were assessed in rats using a LORR assay and a period >30 s was considered as an indicator of general anesthesia.
# Sprague-Dawley rats [4] = experiment: animal or person; conditions: for ED50: LORR in rats, tail vein, brackets = 95% confidence limit; for Approximate therapeutic index / Minimal lethal dose: rats
# Method: as §1
# Sprague-Dawley rats [5] = experiment: Continuous infusion at 2 times the MIR for 1 hour, Group B compounds; format: in vivo; conditions: for Recovery time after stopping infusion: after 1 hour continuous infusion at 2 times the MIR; for Recovery time after stopping infusion / Onset time: rats; for Onset time: continuous tail vein infusion at 2 times the MIR, emulsion
# Method: Time to recovery of righting reflex from stopping infusion, and time to fully awake from stopping infusion were recorded.
# H295R cell line [6] = experiment: Adrenocortical function in vitro test: secretion of cortisol and corticosterone, Group B compounds; format: cell-based; conditions: H295R cells; for EC50: 0.1-10000 nM, HPLC-MS/MS
# Sprague-Dawley rats [7] = experiment: Pharmacological effect and adverse reactions under the equivalent dose (2ED50), Group C compounds; format: in vivo
# Source text: (§2) Evaluation index: onset time: from the completion of drug injection to the disappearance of forepaw righting reflex in rats; Duration of anesthesia: the time from the disappearance of rat forepaw righting reflex to the recovery of rat forepaw righting reflex; Recovery time of anesthesia: the time from the […] to complete recovery;
# Sprague-Dawley rats [8] = experiment: animal or person; format: in vivo; conditions: LORR, up and down method, tail vein, rats, class symbols
# Source text: Evaluating indicator: The end point of anesthesia: LORR was used as the end point of anesthesia; General anesthesia effect: the disappearance of forepaw righting reflex in rats lasting for 30 seconds is taken as the index of general anesthesia effect; Anesthesia recovery index: the recovery of rat forepaw righting reflex was used as the index of anesthesia recovery.
# Sprague-Dawley rats [9] = experiment: Pharmacological effect and adverse reactions under the equivalent dose (2ED50), Group D compounds; format: in vivo
# Source text: as §2
# Sprague-Dawley rats [10] = experiment: animal or person; format: in vivo; conditions: LORR, up and down method, tail vein, rats, class symbols; remark: listed apart in the source
# Source text: Evaluating indicator: The end point of anesthesia: the disappearance of forepaw righting reflex (lorr) was used as the end point of anesthesia; General anesthesia effect: the disappearance of forepaw righting reflex in rats lasting for 30 seconds is taken as the index of general anesthesia effect; Anesthesia recovery index: the recovery of rat forepaw righting reflex was used as the index of anesthesia recovery.
# [11] = read-out: EC50 (Corticosterone)
# [12] = continuous infusion 2 x MIR 1 hour, rats affected/rats
# [13] = Homo sapiens, NCI-H295R, read-out: EC50 (Corticosterone)
# [14] = Homo sapiens, NCI-H295R, read-out: EC50 (Cortisol)
# [15] = 2ED50, tail vein, rats, n=8, unit min
# [16] = equivalent dose (2ED50), number of rats of n = 8
# [17] = Rattus norvegicus, read-out: ED50
# [18] = equivalent dose (2 × ED50), number of rats of n = 8
structure (smiles),measurement,setting,value
C=C=CC1(OC(=O)c2c(Cl)cnn2[C@H](C)c2ccccc2)COC1 [Compound A108],Onset time,Sprague-Dawley rats [1],0.26 ± 0.20 min
same,Righting reflex duration,Sprague-Dawley rats [1],3.29 ± 1.20 min
same,Types and incidence of adverse reactions,Sprague-Dawley rats [1]; (animals affected/animals),"Red urine(8/8), Hindlimb; also recorded: rigidity (7/8), the four; also recorded: limbs Tremor(3/8)"
same,Corticosterone as an indicator to determine the presence of inhibition,H295R cell line [2],0
same,Cortisol as an indicator to determine the presence of inhibition,H295R cell line [2],0
same,EC50,H295R cell line [2]; [11],> 100 nM
same,EC50,H295R cell line [2]; read-out: EC50 (Cortisol),> 100 nM
same,ED50,Sprague-Dawley rats [3]; Rattus norvegicus,2 to 6 mg/kg
same,Approximate therapeutic index,Sprague-Dawley rats [3]; rats,>5
same,Minimal lethal dose,Sprague-Dawley rats [3]; rats,>15 mg/kg
C=C=CC1(OC(=O)c2cnnn2[C@H](C)c2ccccc2)COC1 [Compound B3],ED50,Sprague-Dawley rats [4]; Rattus norvegicus,0.04 to 0.5 mg/kg
same,Approximate therapeutic index,Sprague-Dawley rats [4],>32
same,Minimal lethal dose,Sprague-Dawley rats [4],>6 mg/kg
same,Recovery time after stopping infusion,Sprague-Dawley rats [5],15 to 16 min
same,Types and incidence of adverse reactions: Tongue stretching,Sprague-Dawley rats [5]; [12],stretching(3/6)
same,Types and incidence of adverse reactions: Tremor,Sprague-Dawley rats [5]; [12],"Tremor(4/6), Tongue"
same,Onset time,Sprague-Dawley rats [5],3 to 4 min
same,Corticosterone as an indicator to determine the presence of inhibition,H295R cell line [6],0
same,Cortisol as an indicator to determine the presence of inhibition,H295R cell line [6],0
same,EC50,H295R cell line [6]; [13],> 1000 nM
same,EC50,H295R cell line [6]; [14],> 1000 nM
C[C@H](c1ccccc1)n1nncc1C(=O)OC1CCC1 [Compound B6],ED50,Sprague-Dawley rats [4],A (A indicates that the measured ED50 is in the range of 0.04-0.50 mg/kg (including 0.04 and 0.50 mg/kg))
same,Approximate therapeutic index,Sprague-Dawley rats [4],>71
same,Minimal lethal dose,Sprague-Dawley rats [4],>10 mg/kg
same,Recovery time after stopping infusion,Sprague-Dawley rats [5],14 to 16 min
same,Types and incidence of adverse reactions: Tongue stretching,Sprague-Dawley rats [5]; [12],stretching(2/6)
same,Types and incidence of adverse reactions: Tremor,Sprague-Dawley rats [5]; [12],"Tremor(2/6), Tongue"
same,Onset time,Sprague-Dawley rats [5],4 to 6 min
same,Corticosterone as an indicator to determine the presence of inhibition,H295R cell line [6],0
same,Cortisol as an indicator to determine the presence of inhibition,H295R cell line [6],0
same,EC50,H295R cell line [6]; [11],> 100 nM
same,EC50,H295R cell line [6]; read-out: EC50 (Cortisol),> 100 nM
C[C@H](c1ccccc1)n1nncc1C(=O)OC(C)(C)C [Compound B12],ED50,Sprague-Dawley rats [4],A (A indicates that the measured ED50 is in the range of 0.04-0.50 mg/kg (including 0.04 and 0.50 mg/kg))
same,Approximate therapeutic index,Sprague-Dawley rats [4],>16
same,Minimal lethal dose,Sprague-Dawley rats [4],>5 mg/kg
same,Recovery time after stopping infusion,Sprague-Dawley rats [5],13 to 15 min
same,Types and incidence of adverse reactions: Tremor,Sprague-Dawley rats [5]; [12],Tremor(3/6)
same,Onset time,Sprague-Dawley rats [5],5 to 6 min
same,Corticosterone as an indicator to determine the presence of inhibition,H295R cell line [6],0
same,Cortisol as an indicator to determine the presence of inhibition,H295R cell line [6],0
same,EC50,H295R cell line [6]; [11],> 1000 nM
same,EC50,H295R cell line [6]; read-out: EC50 (Cortisol),> 1000 nM
C[C@H](c1ccccc1)n1nncc1C(=O)OC1(C)COC1 [Compound B14],ED50,Sprague-Dawley rats [4]; Rattus norvegicus,1 to 2 mg/kg
same,Approximate therapeutic index,Sprague-Dawley rats [4],>5
same,Minimal lethal dose,Sprague-Dawley rats [4],>7 mg/kg
same,Types and incidence of adverse reactions: Tremor,Sprague-Dawley rats [5]; [12],Tremor(3/6)
same,Onset time,Sprague-Dawley rats [5],5 to 6 min
same,Corticosterone as an indicator to determine the presence of inhibition,H295R cell line [6],0
same,Cortisol as an indicator to determine the presence of inhibition,H295R cell line [6],0
same,EC50,H295R cell line [6]; [13],> 1000 nM
same,EC50,H295R cell line [6]; [14],> 1000 nM
CC(=O)C1=C(OC(=O)c2c(F)nnn2[C@H](C)c2ccccc2)CCCC1 [Compound B47],ED50,Sprague-Dawley rats [4],"C (C indicates that the measured ED50 is in the range of 1.00-2.00 mg/kg (excluding 1.00 mg/kg, including 2.00 mg/kg))"
same,Approximate therapeutic index,Sprague-Dawley rats [4],>9
same,Minimal lethal dose,Sprague-Dawley rats [4],>13 mg/kg
same,Recovery time after stopping infusion,Sprague-Dawley rats [5],7 to 15 min
same,Types and incidence of adverse reactions: Forelimbrigidity,Sprague-Dawley rats [5]; [12],Forelimbrigidity(1/6)
same,Types and incidence of adverse reactions: Tremor,Sprague-Dawley rats [5]; [12],"Tremor(4/6),"
same,Onset time,Sprague-Dawley rats [5],3 to 4 min
same,Corticosterone as an indicator to determine the presence of inhibition,H295R cell line [6],0
same,Cortisol as an indicator to determine the presence of inhibition,H295R cell line [6],0
same,EC50,H295R cell line [6]; [11],> 100 nM
same,EC50,H295R cell line [6]; read-out: EC50 (Cortisol),> 100 nM
C[C@H](c1ccccc1)n1nnc(Cl)c1C(=O)SC1CCC1 [Compound B80],ED50,Sprague-Dawley rats [4],"D (D indicates that the measured ED50 is in the range of 2.00-10.00 mg/kg (excluding 2.00 mg/kg, including 10.00 mg/kg))"
same,Approximate therapeutic index,Sprague-Dawley rats [4],>3
same,Minimal lethal dose,Sprague-Dawley rats [4],>16 mg/kg
same,Recovery time after stopping infusion,Sprague-Dawley rats [5],12 to 16 min
same,Types and incidence of adverse reactions: Tremor,Sprague-Dawley rats [5]; [12],Tremor(5/6)
same,Onset time,Sprague-Dawley rats [5],3 to 5 min
same,Corticosterone as an indicator to determine the presence of inhibition,H295R cell line [6],0
same,Cortisol as an indicator to determine the presence of inhibition,H295R cell line [6],0
same,EC50,H295R cell line [6]; [11],> 1000 nM
same,EC50,H295R cell line [6]; read-out: EC50 (Cortisol),> 1000 nM
CC#CCOCC(=O)c1ccnn1[C@H](C)c1ccccc1 [Compound C1],Righting reflex duration,"Sprague-Dawley rats [7]; 2ED50, tail vein, rats, n=8",0.90 ± 0.30 min
same,Sedation duration,"Sprague-Dawley rats [7]; 2ED50, tail vein, rats, n=8",9.06 ± 1.21 min
same,Onset time,Sprague-Dawley rats [7]; [15],<1 min
same,Adverse reaction: Convulsions,Sprague-Dawley rats [7]; [16],0
same,"Adverse reaction: Cough, broken-winded",Sprague-Dawley rats [7]; [16],0
same,Adverse reaction: Euphoria,Sprague-Dawley rats [7]; [16],2
same,Adverse reaction: Red urine,Sprague-Dawley rats [7]; [16],8
same,"Adverse reaction: Slower breathing, Tetany convulsion",Sprague-Dawley rats [7]; [16],0
same,"Adverse reaction: Systemic stiffness, Convulsions, Opisthotonus",Sprague-Dawley rats [7]; [16],0
same,Adverse reaction: Tongue stretching,Sprague-Dawley rats [7]; [16],1
same,Adverse reaction: Tremor,Sprague-Dawley rats [7]; [16],0
same,Adverse reaction: the four limbs rigidity,Sprague-Dawley rats [7]; [16],0
same,ED50,Sprague-Dawley rats [8],"++++ (++++ indicates that the measured ED50 is in the range of 2.00-10.00 mg/kg (excluding 2.00 mg/kg, including 6.00 mg/kg))"
C[C@H](c1ccccc1)n1cncc1C(=O)COCC1CCC1 [Compound C29],ED50,Sprague-Dawley rats [8]; [17],2 to 10 mg/kg
CC(=O)OCC(=O)c1cncn1[C@H](C)c1ccccc1 [Compound C53],ED50,Sprague-Dawley rats [8]; [17],10 to 20 mg/kg
CC#CC(=O)c1cncn1[C@H](C)c1ccccc1 [Compound C54],ED50,Sprague-Dawley rats [8]; [17],20 to 30 mg/kg
CC(=O)COCC(=O)c1c(F)ncn1[C@H](C)c1ccccc1 [Compound C84],ED50,Sprague-Dawley rats [8]; [17],10 to 20 mg/kg
CCOC(OC)(OC)C(=O)c1ccnn1[C@H](C)c1ccccc1 [Compound D3],Righting reflex duration,"Sprague-Dawley rats [9]; 2ED50, tail vein, rats, n=8",1.25 ± 0.27 min
same,Sedation duration,"Sprague-Dawley rats [9]; 2ED50, tail vein, rats, n=8",6.26 ± 1.50 min
same,Onset time,Sprague-Dawley rats [9]; [15],<1 min
same,Adverse reaction: Convulsions,Sprague-Dawley rats [9]; [18],0
same,"Adverse reaction: Cough, broken-winded",Sprague-Dawley rats [9]; [18],0
same,Adverse reaction: Euphoria,Sprague-Dawley rats [9]; [18],0
same,Adverse reaction: Four limbs rigidity,Sprague-Dawley rats [9]; [18],1
same,Adverse reaction: Red urine,Sprague-Dawley rats [9]; [18],8
same,"Adverse reaction: Slower breathing, Tetany convulsion",Sprague-Dawley rats [9]; [18],0
same,"Adverse reaction: Systemic stiffness, Convulsions, Opisthotonus",Sprague-Dawley rats [9]; [18],0
same,Adverse reaction: Tongue stretching,Sprague-Dawley rats [9]; [18],0
same,Adverse reaction: Tremor,Sprague-Dawley rats [9]; [18],1
same,ED50,Sprague-Dawley rats [10]; [17],2 to 6 mg/kg
CC#CCOCC(OC)(OC)C(=O)c1cncn1[C@H](C)c1ccccc1 [Compound D73],ED50,Sprague-Dawley rats [10],+++++ (+++++ indicates that the measured ED50 is greater than 6.00 mg/kg (excluding 6.00 mg/kg))
CCC(CC)OC(=O)C(=O)c1cncn1[C@H](C)c1ccccc1 [Compound D83],ED50,Sprague-Dawley rats [10]; [17],> 6 mg/kg
CC#CCOC(=O)C(=O)c1cncn1[C@H](C)c1ccccc1 [Compound D84],ED50,Sprague-Dawley rats [10]; [17],2 to 6 mg/kg
